Laboratory results taken from patent US7700584B2 (Hangzhou Minsheng Pharmaceuticals Co., Ltd., priority 2004, dated 2010).
≈ marks a conversion by molar mass, not a printed value. Like-named read-outs stand apart in the source and are kept apart here.

Tests used:
293 cells = assay: Cell status of 293 cells treated with sample alone (herpes virus screening)
[1] = test system: Bel-7402 human hepatic carcinoma; assay: In vitro inhibition rate to tumor cells (MTT), Bel-7402; assay type: cell-based; conditions: for inhibition at 50 µg/mL: Homo sapiens, Bel-7402, 50 μg/ml, read-out: inhibition rate, Results (%) Bel-7402; for inhibition rate, Results (%) Bel-7402: 50 μg/ml
[2] = test system: Ehrlich's ascites carcinoma (EAC); conditions: 75 mg/Kg, subcutaneous injection; cited from earlier work
MDCK (dog kidney) cells = assay: Toxicity TC50 of the samples in MDCK cells (influenza screening); conditions: concentration of 50% toxicity
mouse sarcoma 37 = conditions: 75 mg/Kg, subcutaneous injection; cited from earlier work
[3] = background statement; cited from earlier work
[4] = test system: MCF-7 human mammary adenocarcinoma; assay: In vitro inhibition rate to tumor cells (MTT), MCF-7; assay type: cell-based; conditions: for inhibition at 50 µg/mL: Homo sapiens, MCF7, 50 μg/ml, read-out: inhibition rate, Results (%) MCF-7; for inhibition rate, Results (%) MCF-7: 50 μg/ml
[5] = test system: SMMC-7721 human hepatic carcinoma; assay: In vitro inhibition rate to tumor cells (MTT), SMMC-7721; assay type: cell-based; conditions: for inhibition at 50 µg/mL: Homo sapiens, SMMC-7721, 50 μg/ml, read-out: inhibition rate, Results (%) SMMC-7721; for inhibition rate, Results (%) SMMC-7721: 50 μg/ml
[6] = test system: U-937 human histocytic lymphoma; assay: In vitro inhibition rate to tumor cells (MTT), U-937; assay type: cell-based; conditions: for inhibition at 50 µg/mL: Homo sapiens, U-937, 50 μg/ml, read-out: inhibition rate, Results (%) U-937; for inhibition rate, Results (%) U-937: 50 μg/ml
[7] = test system: Hela human cervical carcinoma; assay: In vitro anti-tumor IC50 (MTT), Hela; assay type: cell-based; conditions: Table 4
Method: (§1) (1) Single cell suspension was seeded into 96-well plates (the cells was diluted in the PRMI-1640 minimum medium to 3×10^4 cells/ml, […] diluted cells/well). […] The experiments were performed in quadruplicate.
(§2) (2) The medium was removed. Solutions of the anti-tumor agents (50 compounds) were prepared in a freshly prepared medium at serial concentrations. […] of the solution was added into each well. Incubation was continued for 48 hours.
(§3) (3) 20 ug of 2 mg/ml MTT was added into each well, and incubated for 4 hours.
(§4) (4) The medium was removed from the well. The microplates were swiftly turned down to throw-off the medium. […] of DMSO was added into each well, and vortexed at room temperature for 10 minutes.
(§5) (5) OD value (λ=570 nm) was measured with an Enzyme-Linked Detector.
(§6) (6) The graph of cell vitality was plotted, and IC50 was calculated.

[8] = test system: A-549 human lung adenocarcinoma; assay: In vitro inhibition rate to tumor cells (MTT), A-549; assay type: cell-based; conditions: for inhibition at 50 µg/mL: Homo sapiens, A549, 50 μg/ml, read-out: inhibition rate, Results (%) A-549; for inhibition rate, Results (%) A-549: 50 μg/ml
[9] = test system: HL-60 human promyelocytic leukemia; assay: In vitro inhibition rate to tumor cells (MTT), HL-60; assay type: cell-based; conditions: for inhibition at 50 µg/mL: Homo sapiens, HL-60, 50 μg/ml, read-out: inhibition rate, Results (%) HL-60; for inhibition rate, Results (%) HL-60: 50 μg/ml
[10] = test system: LLC mouse Lewis lung carcinoma; assay: In vitro inhibition rate to tumor cells (MTT), LLC; assay type: cell-based; conditions: 50 μg/ml; for inhibition at 50 µg/mL: Mus musculus, Lewis lung carcinoma
Hepatitis B virus (HBV) = assay type: cell-based; conditions: 200 μg/ml; for (Value of the positive control - Measured Value) Value of the positive control × 100%: decrease of HBeAg relative to positive control; for OD450 of HBeAg: supernatant four days after infection, positive control 1.917, negative 0.057
uterine cervix cancer = conditions: 75 mg/Kg, subcutaneous injection; cited from earlier work
HepG2 cells = assay: Cell status of HepG2 cells treated with sample (HBV screening); assay type: cell-based; conditions: 200 μg/ml, HepG2, four days after infection
[11] = test system: Hela human cervical carcinoma; assay: In vitro inhibition rate to tumor cells (MTT), Hela; assay type: cell-based; conditions: 50 μg/ml; for inhibition at 50 µg/mL: Homo sapiens, HeLa, read-out: inhibition rate, Results (%) Hela
[12] = test system: U-937 human histocytic lymphoma; assay: In vitro anti-tumor IC50 (MTT), U-937; assay type: cell-based; conditions: Table 4
Method: as §1, §2, §3, §4, §5, §6

[13] = assay type: cell-based, VSV; conditions: 200 μg/ml, 24 hrs after infection
[14] = 50 μg/ml, 293 cells without virus, 12 hrs

C=C1CC2(O)OC3(CC2C(C)C)C(C)CCC13 (centres unmarked) [Curcumol E, Curcumol, reference compound]
Cytopathy and cell status, Sample (293 cells; [14]): Good | inhibition at 50 µg/mL ([1]; Table 1): 4.79% | inhibition at 50 µg/mL ([1]; Table 2 (repeated screening)): 9.87% | inhibition at 50 µg/mL ([1]; Table 3 (repeated screening)): 9.78% | inhibition rate against Ehrlich's ascites carcinoma (in words) [2]: high inhibition rate | TC50 (MDCK (dog kidney) cells): >1000 µg/mL | inhibition rate against mouse sarcoma 37 (in words) (mouse sarcoma 37): high inhibition rate | water solubility (in words) [3]: Poor water solubility | inhibition at 50 µg/mL ([4]; Table 1): 55.6% | inhibition at 50 µg/mL ([4]; Table 2 (repeated screening)): 50.2% | inhibition at 50 µg/mL ([4]; Table 3 (repeated screening)): 51.2% | inhibition at 50 µg/mL ([5]; Table 1): -11.5% | inhibition at 50 µg/mL ([5]; Table 2 (repeated screening)): -12.3% | inhibition at 50 µg/mL ([5]; Table 3 (repeated screening)): -0.23% | inhibition at 50 µg/mL ([6]; Table 1): 28% | inhibition at 50 µg/mL ([6]; Table 2 (repeated screening)): 14.3% | inhibition at 50 µg/mL ([6]; Table 3 (repeated screening)): 19.8% | IC50 ([7]; Homo sapiens, HeLa, read-out: IC50 (ug/ml) against tumor cell lines, Hela): 3.23 µg/mL (≈ 13.7 µM) | inhibition at 50 µg/mL ([8]; Table 1): -0.57% | inhibition at 50 µg/mL ([8]; Table 2 (repeated screening)): -11.3% | inhibition at 50 µg/mL ([8]; Table 3 (repeated screening)): -16.6% | inhibition at 50 µg/mL ([9]; Table 1): 1.32% | inhibition at 50 µg/mL ([9]; Table 2 (repeated screening)): 1.23% | inhibition at 50 µg/mL ([9]; Table 3 (repeated screening)): 1.79% | inhibition at 50 µg/mL ([10]; Table 1): -3.04% | inhibition at 50 µg/mL ([10]; Table 2 (repeated screening)): -8.9% | inhibition at 50 µg/mL ([10]; Table 3 (repeated screening)): -14.4% | (Value of the positive control - Measured Value) Value of the positive control × 100% (Hepatitis B virus (HBV)): −38.4455% | OD450 of HBeAg (Hepatitis B virus (HBV)): 2.654 | inhibition rate against uterine cervix cancer (in words) (uterine cervix cancer): high inhibition rate | Cell status (HepG2 cells): Normal | inhibition at 50 µg/mL ([11]; Table 1): 86.8% | inhibition at 50 µg/mL ([11]; Table 2 (repeated screening)): 70.1% | inhibition at 50 µg/mL ([11]; Table 3 (repeated screening)): 78.6%

CCCCNC=C1CC2(O)OC3(CC2C(C)C)C(C)CCC13.Cl (centres unmarked) [Compound 14, Curcumol n-butyl amine hydrochloride]
Cytopathy and cell status, Sample (293 cells; [14]): Good | Cytopathy and cell status, Sample (293 cells; 200 μg/ml, 24 hrs): Poor | inhibition rate, Results (%) Bel-7402 ([1]; Table 1): 32.00% | inhibition rate, Results (%) Bel-7402 ([1]; Table 2 (repeated screening)): 23.56% | TC50 (MDCK (dog kidney) cells): 143.17 µg/mL | inhibition rate, Results (%) MCF-7 ([4]; Table 1): 56.30% | inhibition rate, Results (%) MCF-7 ([4]; Table 2 (repeated screening)): 54.23% | IC50 (ug/ml) against tumor cell lines, U-937 [12]: 0.58 µg/mL | inhibition rate, Results (%) SMMC-7721 ([5]; Table 1): 6.14% | inhibition rate, Results (%) SMMC-7721 ([5]; Table 2 (repeated screening)): 3.21% | inhibition rate, Results (%) U-937 ([6]; Table 1): 82.88% | inhibition rate, Results (%) U-937 ([6]; Table 2 (repeated screening)): 81.23% | IC50 (ug/ml) against tumor cell lines, Hela [7]: 1.5 µg/mL | inhibition rate, Results (%) A-549 ([8]; Table 1): 8.09% | inhibition rate, Results (%) A-549 ([8]; Table 2 (repeated screening)): 9.23% | inhibition rate, Results (%) HL-60 ([9]; Table 1): 2.45% | inhibition rate, Results (%) HL-60 ([9]; Table 2 (repeated screening)): 4.35% | inhibition rate, Results (%) LLC ([10]; Table 1): −10.57% | inhibition rate, Results (%) LLC ([10]; Table 2 (repeated screening)): −14.29% | (Value of the positive control - Measured Value) Value of the positive control × 100% (Hepatitis B virus (HBV)): 97.24% | OD450 of HBeAg (Hepatitis B virus (HBV)): 0.053 | Cytopathy and cell status, Sample + VSV [13]: Cytopathy, poor | Cell status (HepG2 cells): Poor | inhibition rate, Results (%) Hela ([11]; Table 1): 75.46% | inhibition rate, Results (%) Hela ([11]; Table 2 (repeated screening)): 76.32%
